Holding throughout (type): biochemical
One test has as its target JAK2 (Homo sapiens (Human), UniProt O60674). Kind of test: JAK Caliper Enzyme Assay at 1 mM ATP, JAK2. The essentials:
(§1)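 Read-out is Caliper LabChip mobility-shift separation of phosphorylated from unphosphorylated fluorescent peptide after EDTA termination. Each JAK kinase domain (human, recombinant) runs at 1 mM ATP at room temperature, adjusted for 20–30% turnover. Inhibition is normalized to DMSO and positive-control wells and plotted against concentration.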

A further test addresses TYK2 (Homo sapiens (Human), UniProt P29597). Kind of test: JAK Caliper Enzyme Assay at 1 mM ATP, TYK2. Summed up: as §1
For the next test, the target named is JAK1 (Homo sapiens (Human), UniProt P23458). Kind of test: JAK Caliper Enzyme Assay at 1 mM ATP, JAK1. Summed up:
(§2)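 Recombinant human kinase domains phosphorylated a fluorescent synthetic peptide at room temperature, with enzyme level and time tuned to 20% to 30% conversion; EDTA stop buffer ended reactions. Mobility-shift separation gave percent product from peak heights, normalised to DMSO and positive controls, and IC50s came from concentration–effect curves.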

Another test deals with JAK3 (Homo sapiens (Human), UniProt P52333). Kind of test: JAK Caliper Enzyme Assay at 1 mM ATP, JAK3. The essentials: as §2
Sequence of JAK3 (P52333 822-1111): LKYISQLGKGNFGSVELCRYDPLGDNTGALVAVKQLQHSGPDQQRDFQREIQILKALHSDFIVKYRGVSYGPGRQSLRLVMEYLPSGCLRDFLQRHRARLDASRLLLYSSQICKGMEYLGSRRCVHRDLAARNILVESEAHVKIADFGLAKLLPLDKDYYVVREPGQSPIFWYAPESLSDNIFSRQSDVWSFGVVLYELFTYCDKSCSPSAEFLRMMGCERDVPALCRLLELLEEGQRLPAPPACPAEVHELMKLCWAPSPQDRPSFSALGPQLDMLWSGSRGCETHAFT

Molecules are shown by their SMILES.

Sequence of TYK2 (P29597 897-1176): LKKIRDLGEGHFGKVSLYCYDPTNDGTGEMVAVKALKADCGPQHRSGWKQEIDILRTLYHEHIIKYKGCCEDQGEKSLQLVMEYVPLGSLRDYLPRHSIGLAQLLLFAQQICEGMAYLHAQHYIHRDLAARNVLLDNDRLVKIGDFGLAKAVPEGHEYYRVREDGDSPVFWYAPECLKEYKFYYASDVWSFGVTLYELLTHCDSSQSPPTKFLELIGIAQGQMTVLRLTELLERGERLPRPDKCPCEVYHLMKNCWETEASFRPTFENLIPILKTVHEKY
Sequence of JAK1 (P23458 875-1153): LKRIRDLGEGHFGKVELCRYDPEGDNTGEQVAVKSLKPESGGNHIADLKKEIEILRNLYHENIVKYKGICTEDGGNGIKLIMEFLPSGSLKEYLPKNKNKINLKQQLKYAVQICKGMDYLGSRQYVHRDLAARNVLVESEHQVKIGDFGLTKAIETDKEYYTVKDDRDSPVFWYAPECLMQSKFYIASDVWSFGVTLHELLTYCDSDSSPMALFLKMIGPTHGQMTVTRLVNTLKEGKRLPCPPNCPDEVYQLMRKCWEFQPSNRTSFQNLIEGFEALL
Sequence of JAK2 (O60674 849-1124): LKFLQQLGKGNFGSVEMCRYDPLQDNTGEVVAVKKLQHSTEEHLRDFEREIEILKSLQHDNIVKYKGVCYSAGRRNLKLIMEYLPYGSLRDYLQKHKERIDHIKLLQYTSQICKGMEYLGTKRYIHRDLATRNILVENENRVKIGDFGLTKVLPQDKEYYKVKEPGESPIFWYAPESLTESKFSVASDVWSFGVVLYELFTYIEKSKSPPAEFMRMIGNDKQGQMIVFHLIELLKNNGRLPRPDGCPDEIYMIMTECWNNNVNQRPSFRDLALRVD

For `Cn1ncc(-c2cc(-c3cnn([C@]4(CC#N)C[C@H](C#N)C4)n3)c3cccnc3c2)c1N` [Example 331, cis-3-{4-[7-(5-amino-1-methyl-1H-pyrazol-4-yl)quinolin-5-yl]-2H-1,2,3-triazol-2-yl}-3-(cyanomethyl)cyclobutanecarbonitrile], the IC50 at JAK2 is 740 nM; on TYK2 it was 115 nM; on JAK1, 3700 nM; on JAK3, more than 10000 nM.
For the compound `Cn1ncc(-c2cc(-c3cnn([C@]4(CC#N)C[C@@H](C#N)C4)n3)c3cccnc3c2)c1C(N)=O` [Example 334, 4-(5-{2-[cis-3-cyano-1-(cyanomethyl)cyclobutyl]-2H-1,2,3-triazol-4-yl}quinolin-7-yl)-1-methyl-1H-pyrazole-5-carboxamide], the IC50 on JAK2 is 4710 nM; on TYK2, 736 nM; on JAK1, more than 10000 nM; at JAK3, more than 10000 nM.
As to `Cc1nc(-c2cc(-c3cnn([C@]4(CC#N)C[C@H](C#N)C4)n3)c3cccnc3c2)c[nH]1` [Example 336, cis-3-(cyanomethyl)-3-{4-[7-(2-methyl-1H-imidazol-4-yl)quinolin-5-yl]-2H-1,2,3-triazol-2-yl}cyclobutanecarbonitrile], the IC50 at JAK2 is 32 nM; on TYK2, 8 nM; at JAK1, 326 nM; on JAK3, 3580 nM.
In the case of `Cc1nc(-c2cc(-c3cnn([C@]4(CC#N)C[C@@H](C#N)C4)n3)c3cccnc3c2)c[nH]1` [Example 337, trans-3-(cyanomethyl)-3-{4-[7-(2-methyl-1H-imidazol-4-yl)quinolin-5-yl]-2H-1,2,3-triazol-2-yl}cyclobutanecarbonitrile], the IC50 at JAK2 is 243 nM; on TYK2 it was 33 nM; on JAK1, 2910 nM; at JAK3, more than 10000 nM.
For `Cn1nncc1-c1cc(-c2cnn([C@]3(CC#N)C[C@H](C#N)C3)n2)c2cccnc2c1` [Example 338, cis-3-(cyanomethyl)-3-{4-[7-(1-methyl-1H-1,2,3-triazol-5-yl)quinolin-5-yl]-2H-1,2,3-triazol-2-yl}cyclobutanecarbonitrile] the same measures were more than 10000 nM, 2460 nM, more than 10000 nM and more than 10000 nM.
The matching figures for `Cn1cc(-c2cc(-c3cnn([C@]4(CC#N)C[C@@H](C#N)C4)n3)c3cccnc3c2)nn1` [Example 339, trans-3-(cyanomethyl)-3-{4-[7-(1-methyl-1H-1,2,3-triazol-4-yl)quinolin-5-yl]-2H-1,2,3-triazol-2-yl}cyclobutanecarbonitrile]: 146 nM, 36 nM, 8370 nM and more than 10000 nM.
Turning to `N#CCC1(n2ncc(-c3cc(-c4nc(CO)cs4)cc4ncccc34)n2)CC(C#N)C1` (stereo not drawn) [Example 340, cis-3-(cyanomethyl)-3-(4-{7-[4-(hydroxymethyl)-1,3-thiazol-2-yl]quinolin-5-yl}-2H-1,2,3-triazol-2-yl)cyclobutanecarbonitrile], the IC50 amounted to 94 nM on JAK2, 13 nM on TYK2, 432 nM at JAK1 and 8910 nM at JAK3.
The matching figures for `N#CC[C@]1(n2ncc(-c3cc(-c4nc(CO)cs4)cc4ncccc34)n2)C[C@H](C#N)C1` [Example 341, trans-3-(cyanomethyl)-3-(4-{7-[4-(hydroxymethyl)-1,3-thiazol-2-yl]quinolin-5-yl}-2H-1,2,3-triazol-2-yl)cyclobutanecarbonitrile]: 649 nM, 57 nM, 3240 nM and more than 10000 nM.
For `N#CC[C@]1(n2ncc(-c3cc(-c4cnc(CO)s4)cc4ncccc34)n2)C[C@H](C#N)C1` [Example 342, trans-3-(cyanomethyl)-3-(4-{7-[2-(hydroxymethyl)-1,3-thiazol-5-yl]quinolin-5-yl}-2H-1,2,3-triazol-2-yl)cyclobutanecarbonitrile] the same measures were 990 nM, 135 nM, 2580 nM and more than 10000 nM.
With `N#CC[C@]1(n2ncc(-c3cc(-c4ncc(CO)s4)cc4ncccc34)n2)C[C@H](C#N)C1` [Example 343, trans-3-(cyanomethyl)-3-(4-{7-[5-(hydroxymethyl)-1,3-thiazol-2-yl]quinolin-5-yl}-2H-1,2,3-triazol-2-yl)cyclobutanecarbonitrile], the IC50 at JAK2 was 660 nM; on TYK2, 65 nM; at JAK1, 3340 nM; on JAK3, more than 10000 nM.
For `N#CCC1(n2ncc(-c3cc(-c4scnc4CO)cc4ncccc34)n2)CC(C#N)C1` (stereo not drawn) [Example 344, trans-3-(cyanomethyl)-3-(4-{7-[4-(hydroxymethyl)-1,3-thiazol-5-yl]quinolin-5-yl}-2H-1,2,3-triazol-2-yl)cyclobutanecarbonitrile] the same measures were more than 10000 nM, 776 nM, more than 10000 nM and more than 10000 nM.
The matching figures for `N#CC[C@]1(n2ncc(-c3cc(-c4cc(CO)ns4)cc4ncccc34)n2)C[C@H](C#N)C1` [Example 345, trans-3-(cyanomethyl)-3-(4-{7-[3-(hydroxymethyl)-1,2-thiazol-5-yl]quinolin-5-yl}-2H-1,2,3-triazol-2-yl)cyclobutanecarbonitrile]: 1860 nM, 249 nM, 3810 nM and more than 10000 nM.
As for `N#CCC1(n2ncc(-c3cc(-c4ccccn4)cc4ncccc34)n2)CC(C#N)C1` (stereo not drawn) [Example 346, cis-3-(cyanomethyl)-3-{4-[7-(pyridin-2-yl)quinolin-5-yl]-2H-1,2,3-triazol-2-yl}cyclobutanecarbonitrile], the half-inhibitory concentration (IC50) is 123 nM at JAK2, 23 nM on TYK2, 1080 nM at JAK1 and more than 10000 nM on JAK3.
As to `N#CC[C@]1(n2ncc(-c3cc(-c4ccc(F)cn4)cc4ncccc34)n2)C[C@@H](C#N)C1` [Example 347, cis-3-(cyanomethyl)-3-{4-[7-(5-fluoropyridin-2-yl)quinolin-5-yl]-2H-1,2,3-triazol-2-yl}cyclobutanecarbonitrile], the IC50 at JAK2 was 114 nM; on TYK2, 26 nM; on JAK1 it was 1200 nM; at JAK3 it was more than 10000 nM.
For `N#CCC1(n2ncc(-c3cc(-c4ccc(F)cn4)cc4ncccc34)n2)CC(C#N)C1` (stereo not drawn) [Example 348, trans-3-(cyanomethyl)-3-{4-[7-(5-fluoropyridin-2-yl)quinolin-5-yl]-2H-1,2,3-triazol-2-yl}cyclobutanecarbonitrile] the same measures were 876 nM, 143 nM, more than 10000 nM and more than 10000 nM.
The matching figures for `N#CCC1(n2ncc(-c3cc(-c4ccc(C(N)=O)cn4)cc4ncccc34)n2)CC(C#N)C1` (stereo not drawn) [Example 351, 6-(5-{2-[trans-3-cyano-1-(cyanomethyl)cyclobutyl]-2H-1,2,3-triazol-4-yl}quinolin-7-yl)pyridine-3-carboxamide]: 688 nM, 131 nM, more than 10000 nM and more than 10000 nM.
For `N#CCC1(n2ncc(-c3cc(-c4ccc(C(N)=O)cn4)cc4ncccc34)n2)CC(C#N)C1` (stereo not drawn) [Example 352, 6-(5-{2-[cis-3-cyano-1-(cyanomethyl)cyclobutyl]-2H-1,2,3-triazol-4-yl}quinolin-7-yl)pyridine-3-carboxamide] the same measures were 106 nM, 27 nM, 825 nM and more than 10000 nM.
As to `N#CCC1(n2ncc(-c3cc(-c4cc(C(N)=O)ccn4)cc4ncccc34)n2)CC(C#N)C1` (stereo not drawn) [Example 353, 2-(5-{2-[cis-3-cyano-1-(cyanomethyl)cyclobutyl]-2H-1,2,3-triazol-4-yl}quinolin-7-yl)pyridine-4-carboxamide], the IC50 on JAK2 was more than 10000 nM; at TYK2 it was 1570 nM; on JAK1, 9630 nM; on JAK3 it was more than 10000 nM.
Regarding `N#CC[C@]1(n2ncc(-c3cc(-c4cc(C(N)=O)ccn4)cc4ncccc34)n2)C[C@@H](C#N)C1` [Example 354, 2-(5-{2-[trans-3-cyano-1-(cyanomethyl)cyclobutyl]-2H-1,2,3-triazol-4-yl}quinolin-7-yl)pyridine-4-carboxamide], the IC50 was more than 10000 nM at JAK2, 7240 nM at TYK2, more than 10000 nM on JAK1 and more than 10000 nM on JAK3.
In the case of `Cc1ccc(-c2cc(-c3cnn(C4(CC#N)CN(S(C)(=O)=O)C4)n3)c3cccnc3c2)cn1` [Example 355, [3-{4-[7-(6-methylpyridin-3-yl)quinolin-5-yl]-2H-1,2,3-triazol-2-yl}-1-(methylsulfonyl)azetidin-3-yl]acetonitrile], the IC50 on JAK2 is 1580 nM; on TYK2, 137 nM; at JAK1 it was more than 10000 nM; at JAK3, more than 10000 nM.
For the compound `Cc1cc(-c2cc(-c3cnn(C4(CC#N)CN(S(C)(=O)=O)C4)n3)c3cccnc3c2)ccn1` [Example 356, [3-{4-[7-(2-methylpyridin-4-yl)quinolin-5-yl]-2H-1,2,3-triazol-2-yl}-1-(methylsulfonyl)azetidin-3-yl]acetonitrile], the IC50 on JAK2 was 973 nM; at TYK2 it was 130 nM; at JAK1 it was more than 10000 nM; on JAK3, more than 10000 nM.

Usually IC50 stands for the concentration that gives 50% inhibition.
